Test results as given in publication PMC4620497 (Scientific Reports, 2015).

Experiments:
[1] = biological target: T1, MST1 (Homo sapiens, UniProt Q13043); test: KINOMEscan panel screen; format: binding; details: read-out: Percent Control(%)
T1 construct: purchased DiscoveRx KINOMEscan (Ambit Biosciences)

[2] = biological target: T2, RSK4(Kin.Dom.1-N-terminal) (Homo sapiens, UniProt Q9UK32); test: KINOMEscan panel screen; format: binding; details: read-out: Percent Control(%)
T2 construct: RSK4(Kin.Dom.1-N-terminal); purchased DiscoveRx KINOMEscan (Ambit Biosciences)

[3] = biological target: T3, SGK3 (Homo sapiens, UniProt Q96BR1); test: KINOMEscan panel screen; format: binding; details: read-out: Percent Control(%)
T3 construct: purchased DiscoveRx KINOMEscan (Ambit Biosciences)
T3 sequence (Q96BR1 whole entry): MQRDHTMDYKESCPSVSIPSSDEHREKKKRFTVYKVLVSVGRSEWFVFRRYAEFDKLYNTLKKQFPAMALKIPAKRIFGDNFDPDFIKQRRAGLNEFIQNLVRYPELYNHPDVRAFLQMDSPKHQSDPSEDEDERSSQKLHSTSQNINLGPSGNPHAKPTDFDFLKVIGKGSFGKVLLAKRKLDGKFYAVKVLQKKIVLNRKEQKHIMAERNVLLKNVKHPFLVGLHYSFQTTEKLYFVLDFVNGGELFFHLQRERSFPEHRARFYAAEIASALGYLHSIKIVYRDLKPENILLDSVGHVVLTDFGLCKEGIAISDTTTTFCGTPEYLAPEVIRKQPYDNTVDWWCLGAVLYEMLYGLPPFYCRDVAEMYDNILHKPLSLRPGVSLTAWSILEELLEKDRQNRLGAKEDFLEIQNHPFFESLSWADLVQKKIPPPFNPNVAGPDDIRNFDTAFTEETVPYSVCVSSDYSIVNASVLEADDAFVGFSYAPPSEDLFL

[4] = biological target: T4, JAK1(JH2domain-pseudokinase) (Homo sapiens, UniProt P23458); test: KINOMEscan panel screen; format: binding; details: read-out: Percent Control(%)
T4 construct: JAK1(JH2domain-pseudokinase); purchased DiscoveRx KINOMEscan (Ambit Biosciences)

[5] = biological target: LCK (Homo sapiens, UniProt P06239); test: KINOMEscan kinase binding assay (Kd)
[6] = biological target: T5, JNK1 (Homo sapiens, UniProt P45983); test: KINOMEscan panel screen; format: binding; details: read-out: Percent Control(%)
T5 construct: purchased DiscoveRx KINOMEscan (Ambit Biosciences)

[7] = biological target: T6, PIM2 (Homo sapiens, UniProt Q9P1W9); test: KINOMEscan panel screen; format: binding; details: read-out: Percent Control(%)
T6 construct: purchased DiscoveRx KINOMEscan (Ambit Biosciences)

[8] = biological target: T7, DAPK2 (Homo sapiens, UniProt Q9UIK4); test: KINOMEscan panel screen; format: binding; details: read-out: Percent Control(%)
T7 construct: purchased DiscoveRx KINOMEscan (Ambit Biosciences)

[9] = system: zebrafish embryos; test: Zebrafish development experiment (posterior axis formation); format: in vivo; details: added at 4hpf, observed after 24hpf
[10] = system: total β-catenin and active β-catenin in STF3a cells; test: Western blot of β-catenin in STF3a cells; format: cell-based; details: 10 μM or above, 24 h
[11] = biological target: T8, PRKCH (Homo sapiens, UniProt P24723); test: KINOMEscan panel screen; format: binding; details: read-out: Percent Control(%)
T8 construct: purchased DiscoveRx KINOMEscan (Ambit Biosciences)
T8 sequence (P24723 whole entry): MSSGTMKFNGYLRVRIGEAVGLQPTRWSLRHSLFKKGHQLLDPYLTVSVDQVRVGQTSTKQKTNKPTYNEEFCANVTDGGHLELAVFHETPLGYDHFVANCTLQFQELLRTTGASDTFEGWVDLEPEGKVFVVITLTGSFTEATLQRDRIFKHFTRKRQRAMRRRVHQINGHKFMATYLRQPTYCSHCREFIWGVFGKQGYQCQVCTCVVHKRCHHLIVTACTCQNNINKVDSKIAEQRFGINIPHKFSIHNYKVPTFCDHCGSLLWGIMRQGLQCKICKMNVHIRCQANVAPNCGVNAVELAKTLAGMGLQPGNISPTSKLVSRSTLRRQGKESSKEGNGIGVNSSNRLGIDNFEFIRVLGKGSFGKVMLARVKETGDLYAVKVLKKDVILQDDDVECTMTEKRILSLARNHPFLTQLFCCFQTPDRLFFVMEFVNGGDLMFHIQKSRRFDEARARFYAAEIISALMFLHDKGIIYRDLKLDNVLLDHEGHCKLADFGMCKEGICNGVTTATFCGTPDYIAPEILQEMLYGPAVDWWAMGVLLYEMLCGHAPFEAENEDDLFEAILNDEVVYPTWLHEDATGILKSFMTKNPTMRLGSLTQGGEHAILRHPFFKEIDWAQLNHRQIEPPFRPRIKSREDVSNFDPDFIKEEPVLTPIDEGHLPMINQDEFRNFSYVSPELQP

[12] = biological target: T9, FLT3(R834Q) (Homo sapiens, UniProt P36888, R834Q); test: KINOMEscan panel screen; format: binding; details: read-out: Percent Control(%)
T9 construct: purchased DiscoveRx KINOMEscan (Ambit Biosciences)

[13] = biological target: T10, CDKL3 (Homo sapiens, UniProt Q8IVW4); test: KINOMEscan panel screen; format: binding; details: read-out: Percent Control(%)
T10 construct: purchased DiscoveRx KINOMEscan (Ambit Biosciences)

[14] = biological target: ERN1 (Homo sapiens, UniProt O75460); test: KINOMEscan panel screen; format: binding; details: read-out: Percent Control(%)
[15] = biological target: T11, MEK3 (Homo sapiens, UniProt P46734); test: KINOMEscan panel screen; format: binding; details: read-out: Percent Control(%)
T11 construct: purchased DiscoveRx KINOMEscan (Ambit Biosciences)

[16] = system: HepG2; test: MTT cell viability assay; details: Homo sapiens, HepG2, 72 h
[17] = biological target: T12, IKK-alpha (Homo sapiens, UniProt O15111); test: KINOMEscan panel screen; format: binding; details: read-out: Percent Control(%)
T12 construct: purchased DiscoveRx KINOMEscan (Ambit Biosciences)
T12 sequence (O15111 whole entry): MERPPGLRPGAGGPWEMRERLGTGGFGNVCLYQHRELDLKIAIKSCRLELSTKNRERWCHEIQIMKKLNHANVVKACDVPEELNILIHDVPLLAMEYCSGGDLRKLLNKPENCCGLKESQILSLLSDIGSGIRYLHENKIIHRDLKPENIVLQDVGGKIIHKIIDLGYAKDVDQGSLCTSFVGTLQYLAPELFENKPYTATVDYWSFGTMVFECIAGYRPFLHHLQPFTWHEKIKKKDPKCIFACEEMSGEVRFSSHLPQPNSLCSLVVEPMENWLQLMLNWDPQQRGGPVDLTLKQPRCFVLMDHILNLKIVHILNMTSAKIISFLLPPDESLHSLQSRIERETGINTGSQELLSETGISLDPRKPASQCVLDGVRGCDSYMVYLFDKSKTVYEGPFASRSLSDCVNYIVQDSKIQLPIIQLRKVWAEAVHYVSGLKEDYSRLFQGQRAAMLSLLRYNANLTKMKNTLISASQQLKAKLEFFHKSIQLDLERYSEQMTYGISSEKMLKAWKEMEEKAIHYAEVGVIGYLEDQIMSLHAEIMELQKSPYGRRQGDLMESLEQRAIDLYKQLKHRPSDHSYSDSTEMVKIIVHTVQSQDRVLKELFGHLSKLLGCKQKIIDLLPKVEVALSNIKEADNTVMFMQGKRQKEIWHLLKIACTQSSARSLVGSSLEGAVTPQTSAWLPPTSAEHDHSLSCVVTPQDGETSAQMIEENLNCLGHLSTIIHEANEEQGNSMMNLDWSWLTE

[18] = biological target: T13, ACVR1 (Homo sapiens, UniProt Q04771); test: KINOMEscan panel screen; format: binding; details: read-out: Percent Control(%)
T13 construct: purchased DiscoveRx KINOMEscan (Ambit Biosciences)

[19] = biological target: T14, LRRK2(G2019S) (Homo sapiens, UniProt Q5S007, G2019S); test: KINOMEscan panel screen; format: binding; details: read-out: Percent Control(%)
T14 construct: purchased DiscoveRx KINOMEscan (Ambit Biosciences)

[20] = biological target: T15, RSK2(Kin.Dom.1-N-terminal) (Homo sapiens, UniProt P51812); test: KINOMEscan panel screen; format: binding; details: read-out: Percent Control(%)
T15 construct: RSK2(Kin.Dom.1-N-terminal); purchased DiscoveRx KINOMEscan (Ambit Biosciences)

[21] = system: normal PBMCs; test: CellTiterGlo viability assay, normal PBMCs; format: cell-based, human; details: 72 h
Description: The patients’ information is listed in Supplementary Table S5. For comparison, three normal PB samples were also collected (sample #7, #8, #9). Peripheral blood mononuclear cells (PBMCs) were isolated from each sample in the following assays.
Methods used in this study were approved by the Ethics Committee of the West China Hospital. Informed consent for the use of human AML and normal peripheral blood (PB) samples for the present study was obtained from all patients according to the Declaration of Helsinki.
Effects of compounds on the PBMC viability were examined using CellTiterGlo (Promega) assays. […] The signal from the viable cells was assessed according to the manufacturer’s protocol.

[22] = biological target: T16, KIT(A829P) (Homo sapiens, UniProt P10721, A829P); test: KINOMEscan panel screen; format: binding; details: read-out: Percent Control(%)
T16 construct: purchased DiscoveRx KINOMEscan (Ambit Biosciences)
T16 sequence (P10721 546-976 A829P limits assumed): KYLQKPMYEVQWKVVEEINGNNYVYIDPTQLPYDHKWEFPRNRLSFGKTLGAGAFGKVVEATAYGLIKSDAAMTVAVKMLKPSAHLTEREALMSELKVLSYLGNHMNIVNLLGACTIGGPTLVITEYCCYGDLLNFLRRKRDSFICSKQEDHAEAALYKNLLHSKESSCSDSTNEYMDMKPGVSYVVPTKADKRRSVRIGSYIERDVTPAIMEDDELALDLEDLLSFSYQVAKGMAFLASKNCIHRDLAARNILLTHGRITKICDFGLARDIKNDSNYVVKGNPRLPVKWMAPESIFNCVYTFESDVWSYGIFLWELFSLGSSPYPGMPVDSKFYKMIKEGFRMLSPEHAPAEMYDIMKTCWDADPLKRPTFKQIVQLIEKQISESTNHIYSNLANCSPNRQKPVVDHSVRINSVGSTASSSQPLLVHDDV

[23] = biological target: T17, EGFR (Homo sapiens, UniProt P00533); test: KINOMEscan panel screen; format: binding; details: read-out: Percent Control(%)
T17 construct: purchased DiscoveRx KINOMEscan (Ambit Biosciences)

[24] = biological target: T18, PKAC-beta (Homo sapiens, UniProt P22694); test: KINOMEscan panel screen; format: binding; details: read-out: Percent Control(%)
T18 construct: purchased DiscoveRx KINOMEscan (Ambit Biosciences)

[25] = biological target: T19, CDKL2 (Homo sapiens, UniProt Q92772); test: KINOMEscan panel screen; format: binding; details: read-out: Percent Control(%)
T19 construct: purchased DiscoveRx KINOMEscan (Ambit Biosciences)
T19 sequence (Q92772 whole entry): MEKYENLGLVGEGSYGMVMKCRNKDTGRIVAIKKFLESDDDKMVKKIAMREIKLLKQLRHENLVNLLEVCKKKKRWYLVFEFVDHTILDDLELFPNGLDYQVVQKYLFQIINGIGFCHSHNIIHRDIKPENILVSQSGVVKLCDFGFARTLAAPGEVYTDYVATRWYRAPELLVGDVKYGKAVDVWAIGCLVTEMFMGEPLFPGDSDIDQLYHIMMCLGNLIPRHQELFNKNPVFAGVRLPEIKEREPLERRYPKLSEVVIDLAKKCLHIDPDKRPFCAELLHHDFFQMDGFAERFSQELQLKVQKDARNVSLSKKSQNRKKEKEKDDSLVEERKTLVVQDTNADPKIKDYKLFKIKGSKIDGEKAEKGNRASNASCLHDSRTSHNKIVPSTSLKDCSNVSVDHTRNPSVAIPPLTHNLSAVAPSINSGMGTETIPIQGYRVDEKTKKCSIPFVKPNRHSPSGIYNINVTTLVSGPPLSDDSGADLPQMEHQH

[26] = biological target: T20, VEGFR2 (Homo sapiens, UniProt P35968); test: KINOMEscan panel screen; format: binding; details: read-out: Percent Control(%)
T20 construct: DNA tag (qPCR read-out); purchased Ambit Biosciences (KINOMEscan service)

[27] = biological target: T21, YSK1 (Homo sapiens, UniProt O00506); test: KINOMEscan panel screen; format: binding; details: read-out: Percent Control(%)
T21 construct: purchased DiscoveRx KINOMEscan (Ambit Biosciences)

[28] = biological target: T22, IRAK3 (Homo sapiens, UniProt Q9Y616); test: KINOMEscan panel screen; format: binding; details: read-out: Percent Control(%)
T22 construct: purchased DiscoveRx KINOMEscan (Ambit Biosciences)

[29] = biological target: T23, CDKL1 (Homo sapiens, UniProt Q00532); test: KINOMEscan panel screen; format: binding; details: read-out: Percent Control(%)
T23 construct: purchased DiscoveRx KINOMEscan (Ambit Biosciences)
T23 sequence (Q00532 whole entry): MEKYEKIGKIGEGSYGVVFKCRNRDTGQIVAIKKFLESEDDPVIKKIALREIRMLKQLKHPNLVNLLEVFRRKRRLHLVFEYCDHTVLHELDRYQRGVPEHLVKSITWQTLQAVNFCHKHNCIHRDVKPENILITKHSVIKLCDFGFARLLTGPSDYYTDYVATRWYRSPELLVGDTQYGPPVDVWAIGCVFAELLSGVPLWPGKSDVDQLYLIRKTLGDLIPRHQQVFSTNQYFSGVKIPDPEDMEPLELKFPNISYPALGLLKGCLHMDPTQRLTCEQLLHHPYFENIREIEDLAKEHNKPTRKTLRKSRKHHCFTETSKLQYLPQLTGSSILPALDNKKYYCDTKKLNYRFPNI

[30] = biological target: T24, CAMK2A (Homo sapiens, UniProt Q9UQM7); test: KINOMEscan panel screen; format: binding; details: read-out: Percent Control(%)
T24 construct: purchased DiscoveRx KINOMEscan (Ambit Biosciences)

[31] = biological target: T25, BMX (Homo sapiens, UniProt P51813); test: KINOMEscan panel screen; format: binding; details: read-out: Percent Control(%)
T25 construct: purchased DiscoveRx KINOMEscan (Ambit Biosciences)

[32] = biological target: T26, IRAK1 (Homo sapiens, UniProt P51617); test: KINOMEscan panel screen; format: binding; details: read-out: Percent Control(%)
T26 construct: purchased DiscoveRx KINOMEscan (Ambit Biosciences)
T26 sequence (P51617 whole entry): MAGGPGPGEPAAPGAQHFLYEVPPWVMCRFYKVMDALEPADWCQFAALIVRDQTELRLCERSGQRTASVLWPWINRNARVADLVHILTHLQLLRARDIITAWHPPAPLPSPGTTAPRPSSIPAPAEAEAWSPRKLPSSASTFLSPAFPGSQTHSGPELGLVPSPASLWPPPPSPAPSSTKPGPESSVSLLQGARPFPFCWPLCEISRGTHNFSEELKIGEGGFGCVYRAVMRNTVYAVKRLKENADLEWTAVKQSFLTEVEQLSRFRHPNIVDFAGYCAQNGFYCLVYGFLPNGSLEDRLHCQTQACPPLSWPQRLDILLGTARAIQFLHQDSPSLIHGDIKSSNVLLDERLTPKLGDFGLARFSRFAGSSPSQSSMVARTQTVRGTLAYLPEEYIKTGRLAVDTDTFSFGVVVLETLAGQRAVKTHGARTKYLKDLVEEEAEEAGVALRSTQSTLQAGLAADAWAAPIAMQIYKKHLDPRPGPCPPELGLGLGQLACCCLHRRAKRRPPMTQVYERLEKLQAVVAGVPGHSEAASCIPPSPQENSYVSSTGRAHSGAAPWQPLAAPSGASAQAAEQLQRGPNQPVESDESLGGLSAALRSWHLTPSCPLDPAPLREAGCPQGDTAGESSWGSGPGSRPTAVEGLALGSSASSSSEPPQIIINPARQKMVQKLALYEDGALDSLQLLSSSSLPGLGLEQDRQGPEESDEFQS

[33] = biological target: T27, PAK6 (Homo sapiens, UniProt Q9NQU5); test: KINOMEscan panel screen; format: binding; details: read-out: Percent Control(%)
T27 construct: purchased DiscoveRx KINOMEscan (Ambit Biosciences)
T27 sequence (Q9NQU5 whole entry): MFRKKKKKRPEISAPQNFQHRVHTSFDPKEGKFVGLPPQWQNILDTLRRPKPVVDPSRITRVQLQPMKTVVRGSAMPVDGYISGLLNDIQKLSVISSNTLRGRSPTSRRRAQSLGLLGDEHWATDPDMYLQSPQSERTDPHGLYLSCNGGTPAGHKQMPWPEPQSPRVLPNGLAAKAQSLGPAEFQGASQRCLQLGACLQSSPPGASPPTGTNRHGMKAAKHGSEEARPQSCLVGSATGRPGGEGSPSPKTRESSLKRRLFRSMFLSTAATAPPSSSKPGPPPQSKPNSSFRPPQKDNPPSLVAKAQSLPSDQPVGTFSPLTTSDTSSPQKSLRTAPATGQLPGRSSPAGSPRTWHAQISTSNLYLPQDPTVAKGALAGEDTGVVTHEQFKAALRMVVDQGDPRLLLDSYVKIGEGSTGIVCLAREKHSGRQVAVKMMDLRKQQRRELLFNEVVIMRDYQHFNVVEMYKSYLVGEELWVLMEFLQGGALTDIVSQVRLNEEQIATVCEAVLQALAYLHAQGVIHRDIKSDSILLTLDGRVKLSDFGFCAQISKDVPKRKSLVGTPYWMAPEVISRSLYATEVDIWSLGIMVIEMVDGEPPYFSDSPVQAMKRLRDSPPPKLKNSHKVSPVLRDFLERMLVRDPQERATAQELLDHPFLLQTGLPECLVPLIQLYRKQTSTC

[34] = biological target: T28, AURKA (Homo sapiens, UniProt O14965); test: KINOMEscan panel screen; format: binding; details: read-out: Percent Control(%)
T28 construct: purchased DiscoveRx KINOMEscan (Ambit Biosciences)
T28 sequence (O14965 whole entry): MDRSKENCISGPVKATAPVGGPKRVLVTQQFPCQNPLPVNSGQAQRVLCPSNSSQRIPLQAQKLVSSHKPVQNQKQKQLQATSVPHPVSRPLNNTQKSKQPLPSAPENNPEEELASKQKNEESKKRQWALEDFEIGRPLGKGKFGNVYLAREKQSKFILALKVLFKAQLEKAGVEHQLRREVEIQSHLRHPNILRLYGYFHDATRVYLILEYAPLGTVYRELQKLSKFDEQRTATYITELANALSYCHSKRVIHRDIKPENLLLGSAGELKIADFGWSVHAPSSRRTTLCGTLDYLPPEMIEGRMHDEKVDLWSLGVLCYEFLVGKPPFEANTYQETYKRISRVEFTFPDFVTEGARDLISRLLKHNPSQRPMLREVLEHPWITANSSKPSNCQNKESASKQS

[35] = biological target: T29, FGFR3 (Homo sapiens, UniProt P22607); test: KINOMEscan panel screen; format: binding; details: read-out: Percent Control(%)
T29 construct: purchased DiscoveRx KINOMEscan (Ambit Biosciences)

[36] = biological target: T30, FAK (Homo sapiens, UniProt Q05397); test: KINOMEscan panel screen; format: binding; details: read-out: Percent Control(%)
T30 construct: purchased DiscoveRx KINOMEscan (Ambit Biosciences)

[37] = biological target: T31, RIOK3 (Homo sapiens, UniProt O14730); test: KINOMEscan panel screen; format: binding; details: read-out: Percent Control(%)
T31 construct: purchased DiscoveRx KINOMEscan (Ambit Biosciences)

CC(C)(C)c1cc(NC(=O)Nc2ccc(Oc3ncnc4[nH]ncc34)c(F)c2)no1 [SKLB-677, 1-(4-(1H-pyrazolo[3,4-d]pyrimidin-4-yloxy)-3-fluorophenyl)-3-(5-tert-butylisoxazol-3-yl)urea]
remaining binding at 10 µM [1]: 28%
remaining binding at 10 µM [2]: 64%
remaining binding at 10 µM [3]: 46%
remaining binding at 10 µM [4]: 74%
Kd [5]: 0.13 µM
remaining binding at 10 µM [6]: 52%
remaining binding at 10 µM [7]: 37%
remaining binding at 10 µM [8]: 83%
embryo dorsalization [9]: led to embryo dorsalization in a dose-dependent manner
protein levels of the total β-catenin and active β-catenin [10]: slightly decreased
remaining binding at 10 µM [11]: 100%
remaining binding at 10 µM [12]: 2.8%
remaining binding at 10 µM [13]: 0.75%
remaining binding at 10 µM [14]: 100%
remaining binding at 10 µM [15]: 63%
IC50 [16]: 6.7 µM
remaining binding at 10 µM [17]: 75%
remaining binding at 10 µM [18]: 95%
remaining binding at 10 µM [19]: 78%
remaining binding at 10 µM [20]: 35%
IC50 ([21]; Homo sapiens, PBMC, sample #7, normal PBMCs): > 10 µM
IC50 ([21]; sample #8, normal PBMCs): > 10 µM
IC50 ([21]; sample #9, normal PBMCs): > 10 µM
remaining binding at 10 µM [22]: 15%
remaining binding at 10 µM [23]: 29%
remaining binding at 10 µM [24]: 88%
remaining binding at 10 µM [25]: 1.7%
remaining binding at 10 µM [26]: 0.1%
remaining binding at 10 µM [27]: 35%
remaining binding at 10 µM [28]: 52%
remaining binding at 10 µM [29]: 3.3%
remaining binding at 10 µM [30]: 73%
remaining binding at 10 µM [31]: 73%
remaining binding at 10 µM [32]: 2%
remaining binding at 10 µM [33]: 90%
remaining binding at 10 µM [34]: 35%
remaining binding at 10 µM [35]: 12%
remaining binding at 10 µM [36]: 84%
remaining binding at 10 µM [37]: 100%
